Active and inactive are the calls of the source. No cut-off for these calls is given here.
What was measured:
[1] = species: Homo sapiens; experiment: Selectivity index, ratio of IC50 for ERK2 (unknown origin) to IC50 for GSK-3 beta (unknown origin) by ATP competitive based analysis
[2] = Toxicity in ICR mouse model of scopolamine-induced cognitive dysfunction assessed as effect on locomotor activity by measuring effect on swimming speed at 15 mg/kg, po by Morris water maze test; assay type: organism-based; conditions: in vivo
[3] = target: Mitogen-activated protein kinase 14 (Homo sapiens, UniProt Q16539); experiment: Inhibition of p38MAPK alpha (unknown origin) by ATP competitive based analysis
[4] = target: Mitogen-activated protein kinase 13 (Homo sapiens, UniProt O15264); experiment: Inhibition of p38MAPK delta (unknown origin) by ATP competitive based analysis
[5] = test system: BV-2; experiment: Anti-inflammatory activity in mouse BV-2 cells assessed as reduction in LPS-induced IL-1beta production incubated for 1 hr followed by LPS stimulation and measured after 24 hrs by ELISA; assay type: functional, cell-based; conditions: dose 2-8 µM, time 25.0 hrs
[6] = species: Homo sapiens; experiment: Selectivity index, ratio of IC50 for CDK7 (unknown origin) to IC50 for GSK-3 beta (unknown origin) by ATP competitive based analysis
[7] = test system: Mus musculus; experiment: Cognitive enhancing effect in ICR mouse model of scopolamine-induced cognitive dysfunction assessed as reduction in memory impairment by measuring increase in number of virtual platform crossings at 15 mg/kg, po by Morris water maze test; assay type: functional, organism-based
[8] = Clearance in Sprague-Dawley rat at 5 mg/kg, iv measured upto 24 hrs by LC-MS/MS analysis; assay type: ADME, organism-based; conditions: in vivo
[9] = target: Glycogen synthase kinase-3 beta (Mus musculus) (UniProt Q9WV60); experiment: Inhibition of GSK3beta in mouse N2a cells overexpressing human tau assessed as tau phosphorylation at Ser396 residue at 0.074 uM incubated for 6 hrs by Western blot analysis (reference value: […] %); assay type: cell-based; set-up: scale not given: the % may be the effect or the level left
[10] = target: Glycogen synthase kinase-3 beta (Mus musculus) (UniProt Q9WV60); experiment: Inhibition of GSK3beta in mouse N2a cells overexpressing human tau assessed as tau phosphorylation at Ser396 residue at 2 uM incubated for 6 hrs by Western blot analysis (reference value: […] %); assay type: cell-based; set-up: scale not given: the % may be the effect or the level left
[11] = Cmax in Sprague-Dawley rat at 5 mg/kg, iv measured upto 24 hrs by LC-MS/MS analysis; assay type: ADME, organism-based; set-up: route intravenous, dose 5 mg/kg, time <=24; conditions: in vivo
[12] = target: Mitogen-activated protein kinase 10 (Homo sapiens, UniProt P53779); experiment: Inhibition of JNK3 (unknown origin) by ATP competitive based analysis
[13] = species: Homo sapiens; experiment: Selectivity index, ratio of IC50 for GSK3alpha (unknown origin) to IC50 for GSK-3 beta (unknown origin) by ATP competitive based analysis
[14] = species: Homo sapiens; experiment: Selectivity index, ratio of IC50 for CDK9 (unknown origin) to IC50 for GSK-3 beta (unknown origin) by ATP competitive based analysis
[15] = target: Glycogen synthase kinase-3 alpha (Homo sapiens, UniProt P49840); experiment: Inhibition of GSK3alpha (unknown origin) by ATP competitive based analysis
[16] = test system: BV-2; experiment: Anti-inflammatory activity in mouse BV-2 cells assessed as reduction in LPS-induced IL-1beta expression at 4 uM incubated for 1 hr followed by LPS stimulation and measured after 24 hrs by immunofluorescence based laser confocal microscopy; assay type: functional, cell-based; conditions: time 25.0 hrs
[17] = target: Cyclin-dependent kinase 9 (Homo sapiens, UniProt P50750); experiment: Inhibition of CDK9 (unknown origin) by ATP competitive based analysis
[18] = target: Cyclin-dependent kinase 4 (Homo sapiens, UniProt P11802); experiment: Inhibition of CDK4 (unknown origin) by ATP competitive based analysis
[19] = target: Glycogen synthase kinase-3 beta (Mus musculus, UniProt Q9WV60); experiment: Inhibition of GSK3beta in mouse N2a cells overexpressing human tau assessed as reduction in tau phosphorylation at Ser396 residue incubated for 6 hrs by Western blot analysis; assay type: cell-based
[20] = target: Mitogen-activated protein kinase 11 (Homo sapiens, UniProt Q15759); experiment: Inhibition of p38MAPK beta (unknown origin) by ATP competitive based analysis
[21] = AUC (0 to infinity) in Sprague-Dawley rat at 10 mg/kg, po by LC-MS/MS analysis; assay type: ADME, organism-based; set-up: route oral, time infinity, dose 10 mg/kg; conditions: in vivo
[22] = test system: BV-2; experiment: Anti-inflammatory activity in mouse BV-2 cells assessed as reduction in LPS-induced TNFalpha expression at 4 uM incubated for 1 hr followed by LPS stimulation and measured after 24 hrs by immunofluorescence based laser confocal microscopy; assay type: functional, cell-based; conditions: time 25.0 hrs
[23] = species: Homo sapiens; experiment: Selectivity index, ratio of IC50 for JNK3 (unknown origin) to IC50 for GSK-3 beta (unknown origin) by ATP competitive based analysis
[24] = target: Mitogen-activated protein kinase 12 (Homo sapiens, UniProt P53778); experiment: Inhibition of p38MAPK gamma (unknown origin) by ATP competitive based analysis
[25] = AUC (0 to 24 hrs) in Sprague-Dawley rat at 5 mg/kg, iv measured upto 24 hrs by LC-MS/MS analysis; assay type: ADME, organism-based; set-up: route intravenous, dose 5 mg/kg, time <=24; conditions: in vivo
[26] = Tmax in Sprague-Dawley rat at 10 mg/kg, po measured upto 24 hrs by LC-MS/MS analysis; assay type: ADME, organism-based; conditions: in vivo
[27] = species: Homo sapiens; experiment: Selectivity index, ratio of IC50 for CDK1 (unknown origin) to IC50 for GSK-3 beta (unknown origin) by ATP competitive based analysis
[28] = Volume of distribution in Sprague-Dawley rat at 10 mg/kg, po measured upto 24 hrs by LC-MS/MS analysis; assay type: ADME, organism-based; conditions: in vivo
[29] = target: Glycogen synthase kinase-3 beta (Homo sapiens, UniProt P49841); experiment: biochemical
Description: Inhibition of recombinant human N-terminal His6-tagged GSK3beta H350L mutant expressed in baculovirus infected Sf21 cells using prephosphorylated polypeptide as substrate incubated for 1 min followed by substrate addition and measured after 30 mins by Kinase-Glo luminescence assay

[30] = target: Dual specificity tyrosine-phosphorylation-regulated kinase 1A (Homo sapiens, UniProt Q13627); experiment: Inhibition of DYRK1A (unknown origin) by ATP competitive based analysis
[31] = Half life in Sprague-Dawley rat at 10 mg/kg, po measured upto 24 hrs by LC-MS/MS analysis; assay type: ADME, organism-based; conditions: in vivo
[32] = species: Homo sapiens; experiment: Selectivity index, ratio of IC50 for CDK2 (unknown origin) to IC50 for GSK-3 beta (unknown origin) by ATP competitive based analysis
[33] = species: Homo sapiens; experiment: Selectivity index, ratio of IC50 for ERK1 (unknown origin) to IC50 for GSK-3 beta (unknown origin) by ATP competitive based analysis
[34] = species: Homo sapiens; experiment: Selectivity index, ratio of IC50 for JNK2 (unknown origin) to IC50 for GSK-3 beta (unknown origin) by ATP competitive based analysis
[35] = test system: BV-2; experiment: Anti-inflammatory activity in mouse BV-2 cells assessed as reduction in LPS-induced TNFalpha production at 8 uM incubated for 1 hr followed by LPS stimulation and measured after 24 hrs by ELISA relative to control; assay type: functional; conditions: time 25 hrs
[36] = target: Glycogen synthase kinase-3 beta (Mus musculus) (UniProt Q9WV60); experiment: Inhibition of GSK3beta in mouse N2a cells overexpressing human tau assessed as tau phosphorylation at Ser396 residue at 0.67 uM incubated for 6 hrs by Western blot analysis (reference value: […] %); assay type: cell-based; set-up: scale not given: the % may be the effect or the level left
[37] = MRT (0 to t) in Sprague-Dawley rat at 5 mg/kg, iv measured upto 24 hrs by LC-MS/MS analysis; assay type: ADME, organism-based; conditions: in vivo
[38] = Ratio of drug level in ICR mouse brain to blood at 15 mg/kg, po measured after 90 mins by LC-MS/MS analysis; assay type: ADME, organism-based; conditions: 1.5 h

Sequence of Glycogen synthase kinase-3 beta (Mus musculus) (Q9WV60 whole entry, looked up): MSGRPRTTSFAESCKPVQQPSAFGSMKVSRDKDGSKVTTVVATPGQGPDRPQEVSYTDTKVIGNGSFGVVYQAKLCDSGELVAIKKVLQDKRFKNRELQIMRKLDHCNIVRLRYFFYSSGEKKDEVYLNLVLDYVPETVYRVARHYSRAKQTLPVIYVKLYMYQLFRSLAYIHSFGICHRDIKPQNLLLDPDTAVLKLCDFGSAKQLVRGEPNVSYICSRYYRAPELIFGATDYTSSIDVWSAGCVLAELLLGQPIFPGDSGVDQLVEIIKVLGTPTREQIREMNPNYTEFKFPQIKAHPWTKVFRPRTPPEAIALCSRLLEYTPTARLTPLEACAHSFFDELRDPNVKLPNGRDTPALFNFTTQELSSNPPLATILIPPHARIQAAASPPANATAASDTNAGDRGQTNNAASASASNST
Sequence of Mitogen-activated protein kinase 14 (Q16539 whole entry): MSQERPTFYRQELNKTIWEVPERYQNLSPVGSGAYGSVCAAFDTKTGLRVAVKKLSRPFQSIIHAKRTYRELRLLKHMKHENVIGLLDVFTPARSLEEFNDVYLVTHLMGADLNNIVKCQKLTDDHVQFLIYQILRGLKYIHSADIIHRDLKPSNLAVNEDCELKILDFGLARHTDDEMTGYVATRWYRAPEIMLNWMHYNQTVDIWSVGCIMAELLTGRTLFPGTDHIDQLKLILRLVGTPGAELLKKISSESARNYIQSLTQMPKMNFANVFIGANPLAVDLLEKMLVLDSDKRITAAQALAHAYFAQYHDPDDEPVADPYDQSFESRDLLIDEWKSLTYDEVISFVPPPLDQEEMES
Sequence of Cyclin-dependent kinase 4 (P11802 whole entry): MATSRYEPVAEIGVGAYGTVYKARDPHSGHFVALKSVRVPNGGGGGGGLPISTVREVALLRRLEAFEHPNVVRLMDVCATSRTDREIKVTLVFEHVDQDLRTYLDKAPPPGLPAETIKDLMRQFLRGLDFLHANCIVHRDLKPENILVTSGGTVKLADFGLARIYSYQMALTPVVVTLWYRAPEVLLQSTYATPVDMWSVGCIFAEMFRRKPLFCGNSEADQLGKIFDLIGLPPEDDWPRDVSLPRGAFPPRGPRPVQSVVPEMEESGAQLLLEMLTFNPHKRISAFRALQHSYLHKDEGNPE
Sequence of Mitogen-activated protein kinase 12 (P53778 whole entry): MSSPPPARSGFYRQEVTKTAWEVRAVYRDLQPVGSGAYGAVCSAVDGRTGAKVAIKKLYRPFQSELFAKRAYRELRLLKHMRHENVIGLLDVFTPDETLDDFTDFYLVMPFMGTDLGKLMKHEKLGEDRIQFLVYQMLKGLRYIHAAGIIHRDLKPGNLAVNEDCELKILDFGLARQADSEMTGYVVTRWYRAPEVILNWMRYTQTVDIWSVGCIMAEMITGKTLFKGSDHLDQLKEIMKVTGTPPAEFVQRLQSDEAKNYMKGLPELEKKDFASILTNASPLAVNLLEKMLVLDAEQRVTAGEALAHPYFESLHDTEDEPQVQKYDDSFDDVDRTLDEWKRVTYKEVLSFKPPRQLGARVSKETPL
Sequence of Mitogen-activated protein kinase 10 (P53779 whole entry): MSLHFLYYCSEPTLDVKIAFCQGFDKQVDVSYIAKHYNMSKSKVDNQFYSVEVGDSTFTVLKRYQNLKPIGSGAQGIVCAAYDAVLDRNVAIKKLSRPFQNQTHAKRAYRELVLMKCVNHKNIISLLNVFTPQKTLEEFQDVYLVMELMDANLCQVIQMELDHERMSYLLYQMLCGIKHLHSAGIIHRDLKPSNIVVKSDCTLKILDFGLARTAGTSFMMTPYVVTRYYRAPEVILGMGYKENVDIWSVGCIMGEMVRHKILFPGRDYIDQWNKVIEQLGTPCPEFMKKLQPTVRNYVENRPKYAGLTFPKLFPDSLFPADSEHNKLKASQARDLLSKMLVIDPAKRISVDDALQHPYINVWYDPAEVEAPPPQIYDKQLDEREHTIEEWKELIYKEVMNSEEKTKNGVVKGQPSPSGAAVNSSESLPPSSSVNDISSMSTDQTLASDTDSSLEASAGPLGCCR
Sequence of Glycogen synthase kinase-3 beta (Homo sapiens, UniProt P49841) (P49841 whole entry): as the sequence (Q9WV60 whole entry, looked up) above, with P390T, A392T, T400A, A402T counted along it
Sequence of Cyclin-dependent kinase 9 (P50750 whole entry): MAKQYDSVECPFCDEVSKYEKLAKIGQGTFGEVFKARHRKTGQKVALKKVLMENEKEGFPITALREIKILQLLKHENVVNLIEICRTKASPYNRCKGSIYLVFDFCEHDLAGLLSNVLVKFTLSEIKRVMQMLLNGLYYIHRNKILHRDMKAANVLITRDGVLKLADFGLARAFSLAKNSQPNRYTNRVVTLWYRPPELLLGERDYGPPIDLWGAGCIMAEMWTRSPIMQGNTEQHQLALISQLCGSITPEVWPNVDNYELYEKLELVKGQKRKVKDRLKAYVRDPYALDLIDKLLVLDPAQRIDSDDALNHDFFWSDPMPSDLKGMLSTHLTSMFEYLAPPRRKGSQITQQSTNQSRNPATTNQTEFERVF
Sequence of Mitogen-activated protein kinase 11 (Q15759 whole entry): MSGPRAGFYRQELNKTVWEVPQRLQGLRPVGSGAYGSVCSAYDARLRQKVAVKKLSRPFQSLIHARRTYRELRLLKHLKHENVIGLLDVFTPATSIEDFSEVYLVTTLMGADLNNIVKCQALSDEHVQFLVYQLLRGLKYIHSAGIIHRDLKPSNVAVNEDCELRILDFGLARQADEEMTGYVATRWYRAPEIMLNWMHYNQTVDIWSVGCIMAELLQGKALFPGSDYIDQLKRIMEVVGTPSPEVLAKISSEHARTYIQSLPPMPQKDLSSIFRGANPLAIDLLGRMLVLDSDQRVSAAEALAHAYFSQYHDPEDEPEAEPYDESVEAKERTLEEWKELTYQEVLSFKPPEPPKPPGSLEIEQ
Sequence of Mitogen-activated protein kinase 13 (O15264 whole entry): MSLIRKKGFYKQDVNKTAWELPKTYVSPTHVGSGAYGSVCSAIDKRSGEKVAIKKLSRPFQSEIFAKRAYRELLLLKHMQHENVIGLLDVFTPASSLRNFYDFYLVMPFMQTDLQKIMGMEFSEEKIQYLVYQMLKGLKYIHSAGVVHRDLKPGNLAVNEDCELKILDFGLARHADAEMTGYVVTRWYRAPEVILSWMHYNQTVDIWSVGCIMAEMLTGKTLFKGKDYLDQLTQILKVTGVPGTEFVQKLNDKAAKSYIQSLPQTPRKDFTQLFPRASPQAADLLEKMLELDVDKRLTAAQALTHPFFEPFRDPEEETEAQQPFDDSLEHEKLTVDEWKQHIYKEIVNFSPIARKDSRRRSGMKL
Sequence of Glycogen synthase kinase-3 beta (Mus musculus, UniProt Q9WV60) (Q9WV60 whole entry): as the sequence (Q9WV60 whole entry, looked up) above
Sequence of Glycogen synthase kinase-3 alpha (P49840 whole entry): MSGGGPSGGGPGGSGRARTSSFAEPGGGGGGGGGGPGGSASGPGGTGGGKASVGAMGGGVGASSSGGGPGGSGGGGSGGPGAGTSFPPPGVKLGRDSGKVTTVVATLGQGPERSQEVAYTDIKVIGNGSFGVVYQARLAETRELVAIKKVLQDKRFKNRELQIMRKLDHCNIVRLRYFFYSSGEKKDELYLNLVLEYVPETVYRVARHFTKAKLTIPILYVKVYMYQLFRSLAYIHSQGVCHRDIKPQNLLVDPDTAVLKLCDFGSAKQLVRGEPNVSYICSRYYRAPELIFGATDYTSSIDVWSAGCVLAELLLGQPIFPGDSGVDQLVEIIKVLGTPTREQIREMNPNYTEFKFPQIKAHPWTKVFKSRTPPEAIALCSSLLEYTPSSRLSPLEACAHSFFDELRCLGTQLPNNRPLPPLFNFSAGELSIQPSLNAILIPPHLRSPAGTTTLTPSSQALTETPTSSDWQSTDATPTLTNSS

Compound: NC(=O)c1sc(-c2ccnc(NC(=O)C3CC3)c2)nc1OCCCC1CCN(Cc2ccc(F)cc2)CC1
- Ratio IC50 [1]: 200
- Activity [2]: Non-Toxic
- IC50 [3]: > 300 nM
- IC50 [4]: > 300 nM
- Activity [5]: Dose-dependent effect
- Ratio IC50 [6]: 200
- Activity [7]: Active
- clearance [8]: 42.5 mL/min/kg
- Activity [9]: 91.1%
- Activity [10]: 14.3%
- Cmax [11]: 1000 ng/mL
- IC50 [12]: > 300 nM
- Ratio IC50 [13]: 200
- Ratio IC50 [14]: 200
- IC50 [15]: 12 nM
- Activity [16]: Active
- IC50 [17]: 108 nM
- IC50 [18]: > 300 nM
- DC50 [19]: 380 nM
- IC50 [20]: > 300 nM
- AUC(0-inf) [21]: 1260 ng·h/mL
- Activity [22]: Active
- Ratio IC50 [23]: 200
- IC50 [24]: > 300 nM
- AUC(0-t) [25]: 1960 ng·h/mL
- Tmax [26]: 4.7 h
- Ratio IC50 [27]: 200
- Vd [28]: 60.7 L/kg
- IC50 [29]: 3 nM
- IC50 [30]: 8.1 nM
- half-life [31]: 5.8 h
- Ratio IC50 [32]: 200
- Ratio IC50 [33]: 200
- Ratio IC50 [34]: 200
- inhibition at 8 µM [35]: 100%
- Activity [36]: 32.9%
- MRT last at 24 h [37]: 3.3 h
- Ratio [38]: 21.6 ng/kg

Reference: ChEMBL document CHEMBL4680314, “Discovery of potent glycogen synthase kinase 3/cholinesterase inhibitors with neuroprotection as potential therapeutic agent for Alzheimer's disease” (Bioorg Med Chem, 2021)
